Data published in patent publication US6087355A, “Cephalosporin antibiotics” (Microcide Pharmaceuticals, Inc., priority 1996, dated 2000).
Structures can show the parent of a compound that is named as a salt.

Key:
Assay in all cases: In vitro MIC, agar dilution
Type in all cases: cell-based
[1] = tested on: S. aureus Col8A(Meth^S)(lac^-); settings: S. aureus Col8A(Meth^S)(lac^-); for MIC: Staphylococcus aureus, read-out: minimum inhibitory concentration (MIC)
Procedure, shortened: (§1)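 Two-fold dilutions (128 to ≤0.25 μg/mL, in duplicate) were poured into Mueller-Hinton agar. Log-phase broth cultures were spot-inoculated at about 10^4 cfu per spot and incubated 35-36°C for 16-20 hours; the MIC was the lowest concentration inhibiting growth. Col is a high-level PBP2a producer; Col 8A is its isogenic PBP2a-lacking partner.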

[2] = tested on: S. aureus Col(Meth^R)(lac^-); settings: for MIC: Staphylococcus aureus, read-out: minimum inhibitory concentration (MIC)
Procedure, shortened: as §1

E. coli ATCC 25992 = settings: for MIC: Escherichia coli, ATCC25992, read-out: minimum inhibitory concentration (MIC)
Procedure, shortened: (§2)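 Agar dilution, Mueller-Hinton; drug 128 → ≤0.25 μg/mL two-fold, duplicates. Inoculum ~10^4 cfu/spot (log phase). 35-36 °C, 16-20 h. MIC = lowest conc. with no growth.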

S. aureus ATCC 29213 = settings: for MIC: Staphylococcus aureus, ATCC29213, read-out: minimum inhibitory concentration (MIC)
Procedure, shortened: as §2

[3] = tested on: S. aureus ATCC 33593(Meth^R); settings: for MIC: Staphylococcus aureus, ATCC33593, read-out: minimum inhibitory concentration (MIC)
Procedure, shortened: as §2

E. faecium VanA(Van^R) = settings: for MIC: Enterococcus faecium, read-out: minimum inhibitory concentration (MIC)
Procedure, shortened: as §2

P. aeruginosa ATCC 27853 = settings: for MIC: Pseudomonas aeruginosa, ATCC27853, read-out: minimum inhibitory concentration (MIC)
Procedure, shortened: as §2

E. faecium ATCC 35667 = settings: for MIC: Enterococcus faecium, ATCC35667, read-out: minimum inhibitory concentration (MIC)
Procedure, shortened: as §2

[4] = tested on: S. aureus 76(Meth^R)(lac^+); settings: for MIC: Staphylococcus aureus, read-out: minimum inhibitory concentration (MIC)
Procedure, shortened: as §2

E. faecalis ATCC 29212 = settings: for MIC: Enterococcus faecalis, ATCC29212, read-out: minimum inhibitory concentration (MIC)
Procedure, shortened: as §2

[5] = tested on: S. aureus Spain #356(Meth^R); settings: for MIC: Staphylococcus aureus, read-out: minimum inhibitory concentration (MIC)
Procedure, shortened: as §2

E. faecalis VanB(Van^R) = settings: for MIC: Enterococcus faecalis, read-out: minimum inhibitory concentration (MIC)
Procedure, shortened: as §2

[6] = tested on: S. aureus PC1(Meth^S)(lac^+); settings: for MIC: Staphylococcus aureus, read-out: minimum inhibitory concentration (MIC)
Procedure, shortened: as §2

[7] = tested on: S. haemolyticus 05(Meth^R); settings: for MIC: Staphylococcus haemolyticus, read-out: minimum inhibitory concentration (MIC)
Procedure, shortened: as §2

[8] = tested on: S. aureus ATCC 13709(Meth^S); settings: for MIC: Staphylococcus aureus, ATCC13709, S. aureus ATCC 13709(Meth^S), read-out: minimum inhibitory concentration (MIC)
Procedure, shortened: as §2

E. faecium A491(Amp^R) = settings: for MIC: Enterococcus faecium, read-out: minimum inhibitory concentration (MIC)
Procedure, shortened: as §2

Compound | MIC [1] [µg/mL] | MIC [2] [µg/mL] | MIC (E. coli ATCC 25992) [µg/mL] | MIC (S. aureus ATCC 29213) [µg/mL] | MIC [3] [µg/mL] | MIC (E. faecium VanA(Van^R)) [µg/mL] | MIC (P. aeruginosa ATCC 27853) [µg/mL] | MIC (E. faecium ATCC 35667) [µg/mL] | MIC [4] [µg/mL] | MIC (E. faecalis ATCC 29212) [µg/mL] | MIC [5] [µg/mL] | MIC (E. faecalis VanB(Van^R)) [µg/mL] | MIC [6] [µg/mL] | MIC [7] [µg/mL] | MIC [8] [µg/mL] | MIC (E. faecium A491(Amp^R)) [µg/mL] | also measured
NCCOCc1cnccc1SC1=C(C(=O)O)N2C(=O)[C@@H](NC(=O)/C(=N\O)c3nc(N)sc3Cl)[C@H]2SC1 [Cmpd 40, (7R)-7-[(Z)-2-(2-amino-5-chlorothiazol-4-yl)-2-(hydroxyimino)acetamido]-3-(3-(2-aminoethoxymethyl)pyrid-4-ylthio)-3-cephem-4-carboxylate, trifluoroacetic acid salt] | 0.5 | 2 | 8 | 0.25 | 2 | 2 | > 32 | 1 | 2 | 0.13 | 2 | 0.25 | 0.13 | 4 | 0.25 | 16 | –
Nc1nc(/C(=N/O)C(=O)N[C@@H]2C(=O)N3C(C(=O)O)=C(Sc4ccncc4CSC4CCNC4)CS[C@H]23)c(Cl)s1 (stereo partly drawn) [Cmpd 42, (7R)-7-[(Z)-2-(2-amino-5-chlorothiazol-4-yl)-2-(hydroxyimino)acetamido]-3-(3-(pyrrolidin-3-ylthiomethyl)pyrid-4-ylthio)-3-cephem-4-carboxylate, trifluoroacetic acid salt] | 0.25 | 0.5 | 2 | 0.13 | 1 | 0.5 | 32 | 0.25 | 1 | ≤ 0.06 | 1 | ≤ 0.06 | 0.13 | 2 | 0.13 | 4 | –
CNCC(=O)NCCSCc1cnccc1SC1=C(C(=O)O)N2C(=O)[C@@H](NC(=O)/C(=N\O)c3nc(N)sc3Cl)[C@H]2SC1 [Cmpd 43, (7R)-7-[(Z)-2-(2-amino-5-chlorothiazol-4-yl)-2-(hydroxyimino)acetamido]-3-[3-(N-methylglycyl)aminoethylthiomethylpyrid-4-ylthio]-3-cephem-4-carboxylate, trifluoroacetic acid salt] | 0.5 | 2 | 8 | 0.5 | 2 | 1 | > 32 | 1 | 2 | 0.13 | 2 | 0.25 | 1 | 4 | 0.5 | 8 | –
NC/C=C\Cc1cnccc1SC1=C(C(=O)O)N2C(=O)[C@@H](NC(=O)/C(=N\O)c3nc(N)sc3Cl)[C@H]2SC1.O=C(O)C(F)(F)F [Cmpd 50, (7R)-7-[(Z)-2-(2-amino-5-chlorothiazol-4-yl)-2-(hydroxyimino)acetamido]-3-(3-(4-amino-2-Z-buten-1-yl)pyrid-4-ylthio)-3-cephem-4-carboxylate, trifluoroacetic acid salt] | – | – | – | – | – | – | – | – | – | – | – | – | – | – | – | – | minimum inhibitory concentration (MIC) [1]: 0.25 µg/mL; minimum inhibitory concentration (MIC) [2]: 2 µg/mL; minimum inhibitory concentration (MIC) (E. coli ATCC 25992): 4 µg/mL; minimum inhibitory concentration (MIC) (S. aureus ATCC 29213): 0.13 µg/mL; minimum inhibitory concentration (MIC) [3]: 2 µg/mL; minimum inhibitory concentration (MIC) (E. faecium VanA(Van^R)): 2 µg/mL; minimum inhibitory concentration (MIC) (P. aeruginosa ATCC 27853): > 32 µg/mL; minimum inhibitory concentration (MIC) (E. faecium ATCC 35667): 1 µg/mL; minimum inhibitory concentration (MIC) [4]: 2 µg/mL; minimum inhibitory concentration (MIC) (E. faecalis ATCC 29212): 0.13 µg/mL; minimum inhibitory concentration (MIC) [5]: 2 µg/mL; minimum inhibitory concentration (MIC) (E. faecalis VanB(Van^R)): 0.5 µg/mL; minimum inhibitory concentration (MIC) [6]: 0.25 µg/mL; minimum inhibitory concentration (MIC) [7]: 4 µg/mL; minimum inhibitory concentration (MIC) ([8]; S. aureus ATCC 13709(Meth^S)): 0.13 µg/mL; minimum inhibitory concentration (MIC) (E. faecium A491(Amp^R)): 16 µg/mL
Nc1nc(/C(=N/O)C(=O)N[C@@H]2C(=O)N3C(C(=O)O)=C(Sc4ccncc4CSC4CCNCC4)CS[C@H]23)c(Cl)s1 [Cmpd 52, (7R)-7-[(Z)-2-(2-amino-5-chlorothiazol-4-yl)-2-(hydroxyimino)acetamido]-3-(3-(piperidine-4-ylthiomethyl)pyrid-4-ylthio)-3-cephem-4-carboxylate, trifluoroacetic acid salt] | 0.25 | 2 | 2 | 0.5 | 2 | 1 | > 32 | ≤ 0.06 | 2 | ≤ 0.06 | 2 | 0.13 | 0.5 | 2 | 0.5 | 4 | –
NCC[S+]([O-])Cc1cnccc1SC1=C(C(=O)O)N2C(=O)[C@@H](NC(=O)/C(=N\O)c3nc(N)sc3Cl)[C@H]2SC1 (stereo partly drawn) [Cmpd 53, (7R)-7-[(Z)-2-(2-amino-5-chlorothiazol-4-yl)-2-(hydroxyimino)acetamido]-3-(3-aminoethylsulfinylmethylpyrid-4-ylthio)-3-cephem-4-carboxylate, trifluoroacetic acid salt] | 0.5 | 4 | 4 | 0.5 | 2 | 2 | > 32 | 1 | 4 | 0.13 | 4 | 0.25 | 1 | 4 | 0.25 | 16 | –
CN(C)C(=O)[C@@H]1CC(SCc2cnccc2SC2=C(C(=O)O)N3C(=O)[C@@H](NC(=O)/C(=N\O)c4nc(N)sc4Cl)[C@H]3SC2)CN1 (stereo partly drawn) [Cmpd 55, (7R)-7-[(Z)-2-(2-amino-5-chlorothiazol-4-yl)-2-(hydroxyimino)acetamido]-3-(3-(5S-5-N,N-dimethylcarboxamidopyrrolidin-3-ylthiomethyl)pyrid-4-ylthio)-3-cephem-4-carboxylate, trifluoroacetic acid salt] | 0.5 | 4 | 8 | 0.5 | 2 | 2 | > 32 | 0.5 | 4 | 0.25 | 4 | 0.5 | 1 | 4 | 0.25 | 16 | –
Nc1nc(/C(=N/O)C(=O)N[C@@H]2C(=O)N3C(C(=O)O)=C(Sc4ccncc4CSCCNC=O)CS[C@H]23)c(Cl)s1 [Cmpd 63, (7R)-7-[(Z)-2-(2-amino-5-chlorothiazol-4-yl)-2-(hydroxyimino)acetamido]-3-(3-(N-formylaminoethylthiomethyl)pyrid-4-ylthio)-3-cephem-4-carboxylate, trifluoroacetic acid salt] | 0.13 | 2 | 16 | 0.25 | 2 | 1 | > 32 | 0.5 | 2 | 0.13 | 4 | 0.25 | 0.25 | 2 | 0.25 | 16 | –
